The text below walks through data of ChEMBL document CHEMBL1201862, “PubChem BioAssay data set” (2004).

SMILES strings stand for the structures.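 Results reflect a 48-hour exposure of cells in 96-well plates to compound at five concentrations. Here, GI50 denotes the concentration required for 50% inhibition of growth.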 Active and inactive are the calls of the source. Rule as the data show it: active = GI50 up to about 1.1 µM and inactive = higher.

Assay in all cases: growth of human tumour cells (NCI), 48 h
In experiment [1] the test system is SK-MEL-2.
Experiment [2] concerns SK-MEL-28.
For experiment [3], the system named is K562.
Experiment [4] concerns SNB-19.
For experiment [5], the system named is A498.
Experiment [6] has as its system ACHN.
In experiment [7] the test system is Malme-3M.
Experiment [8] deals with UO-31.
Experiment [9] deals with SK-MEL-5.
Experiment [10] deals with SF-268.
Experiment [11] has as its system HCT-15.
Experiment [12] relates to OVCAR-5.
Experiment [13] deals with LOX IMVI.
The subject of experiment [14] is NCI/ADR-RES.
The test system of experiment [15] is SF-295.
In experiment [16] the test system is HCT-116.
In experiment [17] the test system is HCC 2998.
In experiment [18] the test system is OVCAR-8.
For experiment [19], the system named is KM12.
The subject of experiment [20] is OVCAR-4.

Turning to `Cn1c(=O)n(-c2c3ccccc3c(Cl)c3ccccc23)n(C(C)(C)C)c1=O`, the GI50 in experiment [1], in experiment [2], in experiment [3], in experiment [4], in experiment [5] and in [6] was > 100 µM (inactive) in each case. The GI50 in [7] was > 100 µM (inactive); in experiment [8], > 100 µM (inactive); in experiment [9], > 100 µM (inactive); in [10], 59.8 µM (inactive); in [11], greater than 100 µM; in [12] it was > 100 µM (inactive). Also, the GI50 in [13] is > 100 µM (inactive); in experiment [14] it was > 100 µM (inactive); in [15], > 100 µM (inactive); in experiment [16], > 100 µM (inactive); in [17], > 100 µM (inactive); in [18], 49.5 µM (inactive). The GI50 in [19] was > 100 µM (inactive).
On to `OC1CCCN(C2(c3cccs3)CCCCC2)C1` (stereo not given), for which the GI50 in experiment [1], in experiment [2], in experiment [3], in experiment [5], in [6] and in experiment [7] was > 100 µM (inactive) each time. For the same compound, the GI50 in experiment [9] is > 100 µM (inactive); in [10] it was > 100 µM (inactive); in [11], greater than 100 µM; in experiment [20], > 100 µM (inactive); in experiment [12] it was > 100 µM (inactive); in [13], > 100 µM (inactive). Further, the GI50 in experiment [14], in experiment [15], in [16], in experiment [17], in [18] and in experiment [19] was > 100 µM (inactive) each time.
As for `Oc1[nH]c(NCc2ccc(Cl)cc2)nc2ncnc1-2`, the GI50 in experiment [1], in [3], in [4], in [5], in experiment [6] and in [7] was > 100 µM (inactive) in each case. Also, the GI50 is > 100 µM (inactive) in [8]; > 100 µM (inactive) in [9]; > 100 µM (inactive) in experiment [10]; greater than 100 µM in [11]; > 100 µM (inactive) in experiment [20]; > 100 µM (inactive) in [12]. For the same compound, the GI50 in [13], in experiment [14], in experiment [15], in experiment [16], in experiment [17] and in experiment [18] was > 100 µM (inactive) each time. In addition, in experiment [19], the GI50 was > 100 µM (inactive).
Consider `O=C1NC(NCc2ccc(F)cc2)=N/C1=C\c1ccccc1Cl`, for which the GI50 was 15.8 µM (inactive) in [1]; 23.6 µM (inactive) in experiment [2]; 11.9 µM (inactive) in experiment [3]; 19.8 µM (inactive) in experiment [4]; 16.8 µM (inactive) in [5]; 20.7 µM (inactive) in experiment [6]. The GI50 in experiment [7] was 16.8 µM (inactive); in experiment [9], 13.4 µM (inactive); in [10], 24.2 µM (inactive); in experiment [11], 19.1 µM; in experiment [20], 23.9 µM (inactive); in [12] it was 16.8 µM (inactive). For the same compound, the GI50 in experiment [13] was 14.7 µM (inactive); in experiment [14], 20.1 µM (inactive); in experiment [15], 17.1 µM (inactive); in [16], 14.5 µM (inactive); in experiment [17], 26.3 µM (inactive); in experiment [18], 14.4 µM (inactive). For the same compound, the GI50 in experiment [19] is 18.1 µM (inactive).
In the case of `COc1ccccc1NC1=NCC(C)S1` (stereo not given), the GI50 in [1], in experiment [2], in [3], in experiment [4], in experiment [5] and in experiment [6] was > 100 µM (inactive) each time. For the same compound, the GI50 in [7] was > 100 µM (inactive); in [8], > 100 µM (inactive); in [9], > 100 µM (inactive); in experiment [10], > 100 µM (inactive); in experiment [11] it was greater than 100 µM; in experiment [12] it was > 100 µM (inactive). The GI50 in experiment [13], in [14], in experiment [15], in experiment [16], in experiment [17] and in experiment [18] was > 100 µM (inactive) throughout. For the same compound, the GI50 in experiment [19] was > 100 µM (inactive).
For the compound `O=c1[nH]/c(=C/c2ccc(OCc3ccccc3)cn2)c(=O)[nH]/c1=C/c1cccnc1`, the GI50 is 0.38 µM (active) in experiment [1]; 0.318 µM (active) in experiment [3]; 0.718 µM (active) in experiment [4]; 0.209 µM (active) in experiment [5]; 0.728 µM (active) in experiment [6]; 0.25 µM (active) in [7]. For the same compound, the GI50 in experiment [9] was 0.226 µM (active); in experiment [10], 0.542 µM (active); in experiment [11] it was 0.254 µM; in [20], 1.25 µM (inactive); in experiment [12], 1.39 µM (inactive); in experiment [13], 1.95 µM (inactive). Also, the GI50 in experiment [14] was 0.345 µM (active); in [15] it was 0.284 µM (active); in experiment [16], 0.342 µM (active); in [17], 1.19 µM (inactive); in experiment [18], 1.08 µM (active); in [19] it was 0.308 µM (active).
For the compound `OC(C1CCCC1=N/N=C1/CCCC1C(O)(C(F)(F)Cl)C(F)(F)Cl)(C(F)(F)Cl)C(F)(F)Cl` (stereo not given), the GI50 in experiment [1], in [2], in experiment [3], in experiment [4], in [5] and in experiment [6] was > 10 µM (inactive) each time. For the same compound, the GI50 in [7] was > 10 µM (inactive); in [9], > 10 µM (inactive); in experiment [10] it was > 10 µM (inactive); in experiment [11] it was greater than 10 µM; in experiment [20], > 10 µM (inactive); in experiment [12], > 10 µM (inactive). The GI50 in [13], in experiment [14], in experiment [15], in experiment [16], in experiment [17] and in [18] was > 10 µM (inactive) each time. Further, in experiment [19], the GI50 is > 10 µM (inactive).
Regarding `O=C(NC(C(F)(F)F)(C(F)(F)F)P(=O)(c1ccccc1)c1ccccc1)C(C(F)(F)F)C(F)(F)F`, the GI50 was 40.6 µM (inactive) in experiment [1]; 32.9 µM (inactive) in experiment [2]; 33.6 µM (inactive) in experiment [3]; 71.3 µM (inactive) in experiment [4]; > 100 µM (inactive) in [5]; 16.7 µM (inactive) in experiment [6]. Further, the GI50 is 14.2 µM (inactive) in experiment [7]; 17.8 µM (inactive) in experiment [9]; 28.9 µM (inactive) in [10]; 30 µM in experiment [11]; 37.7 µM (inactive) in [20]; 34.2 µM (inactive) in [12]. In addition, the GI50 is 23.2 µM (inactive) in experiment [13]; 21.6 µM (inactive) in experiment [14]; 48.4 µM (inactive) in [15]; 18.5 µM (inactive) in experiment [16]; > 100 µM (inactive) in experiment [17]; 29.3 µM (inactive) in [18]. The GI50 in experiment [19] was 26.2 µM (inactive).
